Measured values reported in the supplement of paper PMC12698765.
± gives the standard deviation of the averaged measurements.

Columns and labels:
[1] = tested on: 409B2 hiPSC (iCRISPR Cas9, FRMD7 editing); test: cell survival relative to solvent control (fold (ratio to mock)); higher = more surviving cells
Protocol: (§1)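 Subset screen of 55 drugs tested at 5 concentrations around the effective screening dose, in 409B2 iCRISPR Cas9 hiPSCs editing FRMD7 with a ssDNA donor. Drugs were applied for 24 h. Viability was read by resazurin and editing outcomes by amplicon sequencing (HDR, NHEJ <2 bp microhomology, MMEJ ≥2 bp microhomology). Values are relative to solvent mock controls; two biological replicates.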

[2] = tested on: 409B2 hiPSC (iCRISPR Cas9, FRMD7 editing); test: NHEJ-attributed indel frequency relative to solvent control (fold (ratio to mock)); higher = more NHEJ outcomes
Protocol: as §1

[3] = tested on: 409B2 hiPSC (iCRISPR Cas9, FRMD7 editing); test: MMEJ-attributed deletion frequency relative to solvent control (fold (ratio to mock)); higher = more MMEJ outcomes
Protocol: as §1

[4] = tested on: 409B2 hiPSC (iCRISPR Cas9, FRMD7 editing); test: HDR (precise edit) frequency relative to solvent control (fold (ratio to mock)); higher = more homology-directed repair outcomes
Protocol: as §1

| Structure (SMILES) | cell survival ([1]; 20 nM) | cell survival ([1]; 50 nM) | cell survival ([1]; 100 nM) | cell survival ([1]; 200 nM) | cell survival ([1]; 500 nM) | NHEJ-attributed indel frequency ([2]; 20 nM) | NHEJ-attributed indel frequency ([2]; 50 nM) | NHEJ-attributed indel frequency ([2]; 100 nM) | NHEJ-attributed indel frequency ([2]; 200 nM) | NHEJ-attributed indel frequency ([2]; 500 nM) | MMEJ-attributed deletion frequency ([3]; 20 nM) | MMEJ-attributed deletion frequency ([3]; 50 nM) | MMEJ-attributed deletion frequency ([3]; 100 nM) | MMEJ-attributed deletion frequency ([3]; 200 nM) | MMEJ-attributed deletion frequency ([3]; 500 nM) | HDR ([4]; 20 nM) | HDR ([4]; 50 nM) | HDR ([4]; 100 nM) | HDR ([4]; 200 nM) | HDR ([4]; 500 nM) | further results |
| --- | --- | --- | --- | --- | --- | --- | --- | --- | --- | --- | --- | --- | --- | --- | --- | --- | --- | --- | --- | --- | --- |
| NCCS [2-Aminoethanethiol] (in DMSO) | 0.948 | 1.07 | 0.956 | 1.08 | 0.899 | 0.979 ± 0.0017 | 1.003 ± 0.0053 | 0.9962 ± 0.0046 | 1 ± 0.022 | 1.02 ± 0.052 | 0.917 ± 0.035 | 0.862 ± 0.013 | 0.932 ± 0.18 | 0.976 ± 0.074 | 1.04 ± 0.19 | 1.073 ± 0.0014 | 1.05 ± 0.08 | 0.984 ± 0.019 | 1.12 ± 0.029 | 0.949 ± 0.16 |  |
| CC(=O)O[C@@]12CO[C@@H]1C[C@@H](O)[C@@]1(C)C(=O)[C@H](O)C3=C(C)[C@@H](O)C[C@@](O)([C@@H](OC(=O)c4ccccc4)[C@H]21)C3(C)C [10-DAB (10-Deacetylbaccatin)] (in DMSO) |  |  |  | 0.914 | 1.06 |  |  |  | 0.906 ± 0.017 | 0.983 ± 0.014 |  |  |  | 1.06 ± 0.14 | 1.02 ± 0.049 |  |  |  | 1.063 ± 0.0036 | 1 ± 0.049 | cell survival ([1]; 1000 nM): 0.177; cell survival ([1]; 2000 nM): 0.00356; cell survival ([1]; 5000 nM): 0.00663; NHEJ-attributed indel frequency ([2]; 1000 nM): 0.918 ± 0.075; NHEJ-attributed indel frequency ([2]; 2000 nM): 0.488 ± 0.08; NHEJ-attributed indel frequency ([2]; 5000 nM): 0.522 ± 0.1; MMEJ-attributed deletion frequency ([3]; 1000 nM): 0.936 ± 0.083; MMEJ-attributed deletion frequency ([3]; 2000 nM): 0.561 ± 0.18; MMEJ-attributed deletion frequency ([3]; 5000 nM): 0.4879 ± 0.0029; HDR ([4]; 1000 nM): 0.816 ± 0.17; HDR ([4]; 2000 nM): 0.304 ± 0.013; HDR ([4]; 5000 nM): 0.339 ± 0.06 |
| CC[C@@]1(O)C(=O)OCc2c1cc1n(c2=O)Cc2cc3cc(O)ccc3nc2-1 [10-Hydroxycamptothecin] (in DMSO) | 0.0133 | -0.00908 | -0.00864 | -0.0102 | -0.000182 | 0.393 ± 0.053 | 0.378 ± 0.0062 | 0.333 ± 0.045 | 0.267 ± 0.025 | 0.208 ± 0.021 | 0.686 ± 0.039 | 0.286 ± 0.059 | 0.389 ± 0.0056 | 0.546 ± 0.05 | 0.474 ± 0.22 | 0.141 ± 0.075 | 0.115 ± 0.032 | 0.106 ± 0.03 | 0.0697 ± 0.015 | 0.109 ± 0.033 |  |
| C=CC[C@]1(O)CC[C@H]2[C@@H]3CCC4=CC(=O)CCC4=C3C=C[C@@]21C [Altrenogest] (in DMSO) | 1.01 | 1.11 | 0.87 | 1.05 | 1.06 | 0.9775 ± 0.0069 | 1.007 ± 0.0051 | 1.007 ± 0.0033 | 1 ± 0.038 | 1.02 ± 0.036 | 1 ± 0.085 | 0.963 ± 0.12 | 1.02 ± 0.12 | 0.888 ± 0.14 | 0.98 ± 0.18 | 1.08 ± 0.065 | 1.08 ± 0.06 | 1.024 ± 0.0079 | 1.048 ± 0.0023 | 1.01 ± 0.088 |  |
| CO[C@H]1O[C@@H]2O[C@@]3(C)CC[C@H]4[C@H](C)CC[C@@H]([C@H]1C)[C@@]24OO3 [Artemether (SM-224)] (in DMSO) |  |  |  | 0.947 | 1.23 |  |  |  | 0.983 ± 0.012 | 0.976 ± 0.022 |  |  |  | 0.853 ± 0.13 | 0.935 ± 0.072 |  |  |  | 1.06 ± 0.036 | 1.13 ± 0.018 | cell survival ([1]; 1000 nM): 0.644; cell survival ([1]; 2000 nM): 1.09; cell survival ([1]; 5000 nM): 1.03; NHEJ-attributed indel frequency ([2]; 1000 nM): 0.958 ± 0.011; NHEJ-attributed indel frequency ([2]; 2000 nM): 1 ± 0.024; NHEJ-attributed indel frequency ([2]; 5000 nM): 1.02 ± 0.037; MMEJ-attributed deletion frequency ([3]; 1000 nM): 0.804 ± 0.037; MMEJ-attributed deletion frequency ([3]; 2000 nM): 0.907 ± 0.14; MMEJ-attributed deletion frequency ([3]; 5000 nM): 0.946 ± 0.026; HDR ([4]; 1000 nM): 1.123 ± 0.0055; HDR ([4]; 2000 nM): 1.09 ± 0.11; HDR ([4]; 5000 nM): 1.17 ± 0.15 |
| Cc1ccc(NC(=O)c2ccc(CN3CC[C@H](N(C)C)C3)c(C(F)(F)F)c2)cc1Nc1nccc(-c2cncnc2)n1 [Bafetinib (INNO-406)] (in DMSO) |  |  |  |  |  |  |  |  |  |  |  |  |  |  |  |  |  |  |  |  | cell survival ([1]; 2000 nM): 1.07; cell survival ([1]; 5000 nM): 1.36; cell survival ([1]; 10000 nM): 0.818; cell survival ([1]; 20000 nM): 0.096; cell survival ([1]; 50000 nM): 0.0107; NHEJ-attributed indel frequency ([2]; 2000 nM): 0.9931 ± 0.002; NHEJ-attributed indel frequency ([2]; 5000 nM): 1.004 ± 0.0057; NHEJ-attributed indel frequency ([2]; 10000 nM): 1.06 ± 0.025; NHEJ-attributed indel frequency ([2]; 20000 nM): 1.03 ± 0.11; NHEJ-attributed indel frequency ([2]; 50000 nM): 0.525; MMEJ-attributed deletion frequency ([3]; 2000 nM): 1.04 ± 0.012; MMEJ-attributed deletion frequency ([3]; 5000 nM): 0.89 ± 0.082; MMEJ-attributed deletion frequency ([3]; 10000 nM): 1.13 ± 0.045; MMEJ-attributed deletion frequency ([3]; 20000 nM): 1.32 ± 0.11; MMEJ-attributed deletion frequency ([3]; 50000 nM): 0.621; HDR ([4]; 2000 nM): 1.04 ± 0.053; HDR ([4]; 5000 nM): 1.066 ± 0.0049; HDR ([4]; 10000 nM): 1.03 ± 0.1; HDR ([4]; 20000 nM): 0.775 ± 0.27; HDR ([4]; 50000 nM): 0.282 |
